Measured values taken from US11286239B2, “Angiotensin II receptor 2 antagonist salt form and crystalline form, and preparation method therefor” (SHANDONG DANHONG PHARMACEUTICAL CO., LTD., priority 2018, dated 2022).

Assays:
[1] = Hygroscopicity study by dynamic vapor sorption (DVS); format: physicochemical; conditions: 25° C. and 80% RH
Method: Test conditions: a sample (10-15 mg) is placed in DVS sample tray for testing.
Balance: dm/dt=0.01%/min (shortest: 10 min, longest: 180 min)
Drying: drying for 120 min at 0% RH
RH (%) test gradient: 10%
RH (%) test gradient range: 0%-90%-0%
The hygroscopicity property is evaluated and classified as follows: […]

Solid stability test = format: physicochemical
Method: […] The samples placed at the conditions of high temperature (60° C.) and high humidity (92.5% humidity, room temperature) were taken to test XRPD and purity on the 5th day and 10 days. Samples placed at high temperature and high humidity (40° C./75% humidity, 60° C./75% humidity) were taken to test XRPD and purity on the 10th day, 1 month, 2 months, and 3 months. The samples placed under light irradiation conditions were taken for testing when a total illuminance reached 1.2×10^6 Lux·hr. The test results are compared with the beginning test results of 0 day.

[2] = 40° C., relative humidity 75%, open, 1M
[3] = 40° C., relative humidity 75%, open, 2M
[4] = 40° C., relative humidity 75%, open, 3M
[5] = 40° C., relative humidity 75%, open, 10 days
[6] = 60° C., relative humidity 75%, open, 1M
[7] = 60° C., relative humidity 75%, open, 2M
[8] = 60° C., relative humidity 75%, open, 3M
[9] = 60° C., relative humidity 75%, open, 10 days
[10] = High humidity (room temperature/relative humidity 92.5%, open), 5 days
[11] = High humidity (room temperature/relative humidity 92.5%, open), 10 days
[12] = High temperature (60° C., open), 5 days
[13] = High temperature (60° C., open), 10 days
[14] = Light irradiation (total illuminance of 1.2 × 10^6 Lux·hr/near ultraviolet 200 w·hr/m^2, open)

Classification of hygroscopicity [1]: almost no hygroscopicity
ΔW, weight gain caused by hygroscopicity [1]: 0.05327%
Crystalline form (XRPD) (Solid stability test; 0 day): Crystalline form “B”
Purity (Solid stability test; 0 day): 99.89%
Crystalline form (XRPD) (Solid stability test; [2]): Crystalline form “B”
Purity (Solid stability test; [2]): 99.92%
Crystalline form (XRPD) (Solid stability test; [3]): Crystalline form “B”
Purity (Solid stability test; [3]): 99.87%
Crystalline form (XRPD) (Solid stability test; [4]): Crystalline form “B”
Purity (Solid stability test; [4]): 99.87%
Crystalline form (XRPD) (Solid stability test; [5]): Crystalline form “B”
Purity (Solid stability test; [5]): 99.93%
Crystalline form (XRPD) (Solid stability test; [6]): Crystalline form “B”
Purity (Solid stability test; [6]): 99.90%
Crystalline form (XRPD) (Solid stability test; [7]): Crystalline form “B”
Purity (Solid stability test; [7]): 99.78%
Crystalline form (XRPD) (Solid stability test; [8]): Crystalline form “B”
Purity (Solid stability test; [8]): 99.80%
Crystalline form (XRPD) (Solid stability test; [9]): Crystalline form “B”
Purity (Solid stability test; [9]): 99.92%
Crystalline form (XRPD) (Solid stability test; [10]): Crystalline form “B”
Purity (Solid stability test; [10]): 99.93%
Crystalline form (XRPD) (Solid stability test; [11]): Crystalline form “B”
Purity (Solid stability test; [11]): 99.92%
Crystalline form (XRPD) (Solid stability test; [12]): Crystalline form “B”
Purity (Solid stability test; [12]): 99.93%
Crystalline form (XRPD) (Solid stability test; [13]): Crystalline form “B”
Purity (Solid stability test; [13]): 99.93%
Crystalline form (XRPD) (Solid stability test; [14]): Crystalline form “B”
Purity (Solid stability test; [14]): 99.96%
Structure (SMILES): COc1ccc2c(c1OCc1ccccc1)C[C@@H](C(=O)O)N(C(=O)[C@@H](OC1CCCC1)c1ccccc1)C2 [crystalline form “B”]
Solid stability conclusion (Solid stability test; high temperature, high humidity, strong light and accelerated conditions): good crystal stability and good chemical stability
